Test: Human HepG2 cell viability assay in 384 well format
Assay type: toxicity, cell-based
Set-up: dose 125 nL, time 70.5 hour; cytotoxicity at 70.5 h: concentration not given beside the values
Conditions: HepG2 cells, read-out: Inhibition

Going from Cc1ccc(-c2nc3c([nH]2)CCNC3C(=O)O)c2cccnc12 (stereo unspecified) to Cc1csc2c(N3CCNC(C(=O)Nc4ccc(F)cc4)C3)ncnc12 (stereo unspecified), the cytotoxicity at 70.5 h falls from -6.16% to -9.29%.

Compared with Cn1cc(C2CN(C(=O)Cc3coc(-c4ccccc4)n3)CCO2)cn1 (stereo unspecified), c1ccc(-n2ncc(CN3CCCC(Cn4cncn4)C3)n2)cc1 (stereo unspecified) is lower in cytotoxicity at 70.5 h: 4.27% for the first, 0.701% for the second.

Going from O=S(=O)(Cc1ccccc1F)N1CCCC1c1nnc2n1CCCCC2 (stereo unspecified) to CCc1nnc2ccc(N3CCN(S(=O)(=O)c4ccc(C)s4)CC3)nn12, the cytotoxicity at 70.5 h falls from -6.25% to -21.3%.

First: O=c1ccc(-c2cccs2)nn1CN1CCN(C2CCS(=O)(=O)C2)CC1 (stereo unspecified)
Second: CCn1cnnc1CNC(=O)N1CCN(c2ccccc2Cl)CC1
The cytotoxicity at 70.5 h of the first is lower: -10.9% for the first, -3.38% for the second.

Compared with CCCN1CCC(Cc2noc(-c3ncccc3C)n2)CC1, CCc1nc(CN2CCCN(Cc3cnn(C)c3)CC2)no1 is higher in cytotoxicity at 70.5 h: -5.81% for the first, 0.0385% for the second.

Compared with Cc1noc(C)c1CN1CCCC1c1c(C)nn(C)c1Cl (stereo unspecified), Cc1nn(C)c(C)c1C1COCCN1C(=O)c1n[nH]c2ccccc12 (stereo unspecified) is lower in cytotoxicity at 70.5 h: -2.34% for the first, -10.8% for the second.

Compared with COC(=O)N1CCN2C[C@H](CO)[C@@H](c3ccccc3)[C@H]2C1, CNC(=O)CN1CC[C@H]2CN(C(=O)c3ccoc3)C[C@H]2C1 is higher in cytotoxicity at 70.5 h: -4.89% for the first, -4.77% for the second.

Going from O=C(NCCNC(=O)c1ccc(Cl)cc1)NCCn1cccc1 to COc1cc(C(=O)O)ccc1OCC(=O)NCCc1ccccc1, the cytotoxicity at 70.5 h rises from -4.35% to -2.71%.

Compared with CN(Cc1nc(-c2ccoc2)no1)C1CCCN(c2cccnn2)C1 (stereo unspecified), Cn1cnnc1-c1ccnc(NCc2ccccc2)c1 is lower in cytotoxicity at 70.5 h: 1.16% for the first, -6.07% for the second.

First: CSc1ccc(CN2C[C@@H]3CC[C@@](O)(c4ccc(C)cn4)[C@@H]3C2)cc1
Second: CSc1ccccc1C(=O)N1C[C@@H](N(C)C)[C@H](c2ccc(C)cc2)C1
The cytotoxicity at 70.5 h of the first is higher: 41.8% for the first, -1.92% for the second.

Compared with CC(NC(=O)Cn1ccc2sccc2c1=O)c1ccccc1 (stereo unspecified), O=C1CC(C(=O)Nc2nnc(-c3ccoc3)[nH]2)c2ccccc2N1 (stereo unspecified) is higher in cytotoxicity at 70.5 h: -10.1% for the first, 0.202% for the second.

Going from COc1ccc(C2SCC(=O)Nc3ccsc32)cc1 (stereo unspecified) to Cc1cnc(N2C(=O)CSC2c2ccc(F)cc2)s1 (stereo unspecified), the cytotoxicity at 70.5 h falls from -3.24% to -5.25%.

Going from CNC(=O)C(CC(C)C)NC(=O)c1cccc(-c2n[nH]c(C)n2)c1 (stereo unspecified) to CC(C)Cn1cncc1-c1nc2c([nH]1)CCCNC2=O, the cytotoxicity at 70.5 h falls from 0.903% to -6.28%.

Going from O=C([C@@H]1CCO[C@@H]2CCN(Cc3cccnc3)C[C@H]21)N1CCCCO1 to c1ccc(N2CC[C@H](OCC3CC3)[C@@H]2Cc2cccnc2)nc1, the cytotoxicity at 70.5 h rises from -13.8% to -3.44%.

Compared with CCc1c(C)nn(CCNC(=O)c2cnn[nH]2)c1C, Cc1cc(C(F)(F)F)nc(CNC(=O)CCC2CCCCN2C)n1 (stereo unspecified) is higher in cytotoxicity at 70.5 h: -5.63% for the first, 0.421% for the second.

First: COc1cc(CNC(=O)N2CCCC2c2cc(C)no2)ccn1 (stereo unspecified)
Second: CCc1nc(C2CCCN2C(=O)CCc2cscn2)no1 (stereo unspecified)
The cytotoxicity at 70.5 h of the first is lower: -15.1% for the first, -4.03% for the second.

Compared with Cn1ccnc1CN1CCC2(CCCN2c2ncccn2)CC1, CC(C)NC(=O)C1CCC2(CCN(c3ncccn3)CC2)CO1 (stereo unspecified) is lower in cytotoxicity at 70.5 h: -0.454% for the first, -9.99% for the second.

Compared with Clc1snnc1CN1CCCC1Cn1cncn1 (stereo unspecified), CC(C)c1nccn1C1CCCN(C(=O)CCCc2ccccn2)C1 (stereo unspecified) is lower in cytotoxicity at 70.5 h: 53.6% for the first, -10.5% for the second.

Going from CCO[C@@H]1CC[C@H]2[C@H]1OCCN2C(=O)C1CCOCC1 to O=C(C1CC=CC1)N1CC[C@@H]2O[C@@H](COCC3CCOCC3)CC[C@@H]21, the cytotoxicity at 70.5 h rises from -2.08% to 6.54%.

Compared with Cc1ccc(F)c(NCC(C)(C)S(C)(=O)=O)c1, Cc1nc(C)c(CCNc2ccc(S(N)(=O)=O)cc2C#N)s1 is lower in cytotoxicity at 70.5 h: -2.22% for the first, -15% for the second.

First: CC1CS(=O)(=O)CCN1CCCc1ccc(C(F)(F)F)cc1 (stereo unspecified)
Second: CCS(=O)(=O)N1C[C@H]2CN(Cc3ccc(OC)cc3)C(=O)[C@H]2C1
The cytotoxicity at 70.5 h of the first is higher: -10.6% for the first, -10.9% for the second.

Compared with O=C([C@H]1C[C@@H]2CN(c3ncc(F)cn3)C[C@H]1O2)N1CCCC1, Cc1cc(C)c2c(N3CCCN(C(=O)C4CCC4)CC3)ncnc2n1 is higher in cytotoxicity at 70.5 h: -9.42% for the first, -6.75% for the second.

Going from FC(F)(F)c1cc(C2CCNCC2)nc(-c2ccsc2)n1 to O=C(NCC1CCN(Cc2ccsc2)CC1)NC1CC1, the cytotoxicity at 70.5 h rises from -11.8% to 1.34%.

Compared with CCCSCC(=O)NCc1cccc(CN(C)CC)c1, CN(Cc1ccoc1)C(=O)Cn1ncc(N(C)C)cc1=O is higher in cytotoxicity at 70.5 h: -9.96% for the first, 9.67% for the second.

First: CC(Cn1ccnc1)NC(=O)N1CCN(Cc2ccncc2)CC1 (stereo unspecified)
Second: CCOCCN1CCC(C(=O)c2cc(F)ccc2F)CC1
The cytotoxicity at 70.5 h of the first is lower: -2.15% for the first, 17.7% for the second.

Compared with Cc1ccc(C2CSCCN2C(=O)c2cc(C(N)=O)cs2)o1 (stereo unspecified), NC(=O)C1CCC(NC(=O)COc2ccc(Cl)c(Cl)c2)CC1 (stereo unspecified) is higher in cytotoxicity at 70.5 h: -8.27% for the first, 2.5% for the second.

First: COc1nc(C)c(C(=O)NCc2cc(N3CCOCC3)ncn2)s1
Second: Cc1nc[nH]c1C(=O)N1CCCC2(CN(C)C(=O)O2)C1 (stereo unspecified)
The cytotoxicity at 70.5 h of the first is lower: -2.68% for the first, -0.146% for the second.

Going from Cn1cnc(S(=O)(=O)NCCN2CCCCCC2=O)c1Cl to CN(C)CCC1CN(C(=O)c2cccc3c2OCC3)CCO1 (stereo unspecified), the cytotoxicity at 70.5 h rises from 14.4% to 30%.

— ChEMBL document CHEMBL3507680, “University of Dundee, Gates Library screen for HepG2 cell viability”
